Laboratory results: ChEMBL document CHEMBL3868619, “Synthesis and biological assessment of novel N-(hydroxy/methoxy)alkyl β-enaminone curcuminoids” (Bioorg Med Chem Lett, 2016)
≈ marks a conversion by molar mass, not a printed value.

Experiments:
[1] = Antioxidant activity assessed as DPPH radical scavenging activity after 30 mins by spectrophotometric analysis; format: functional
[2] = Cytotoxicity against human HT-29 cells assessed as decrease in cell viability after 48 hrs by MTT assay; format: functional, cell-based; conditions: HT-29, 48 h
[3] = Cytotoxicity against CHOK1 cells assessed as decrease in cell viability after 48 hrs by MTT assay; format: toxicity, cell-based, Cricetulus griseus; conditions: Chinese hamster, CHO-K1 cells
[4] = system: HepG2; assay: Induction of ROS generation in human HepG2 cells at 10 uM using DCFH-DA by fluorescence assay relative to control; format: functional
[5] = Chemical stability of the compound sodium phosphate buffer at pH 6.8 after 24 hrs by LC-MS analysis; format: physicochemical; conditions: pH 6.8, 24 h
[6] = Aqueous solubility of the compound in sodium phosphate buffer at pH 6.8 after 24 hrs by shake flask method; format: physicochemical
[7] = Cytotoxicity against human EAhy926 cells assessed as decrease in cell viability after 48 hrs by MTT assay; format: toxicity, cell-based, EA.hy 926; conditions: EA.hy926 cells
[8] = Cytotoxicity against human HepG2 cells assessed as decrease in cell viability after 48 hrs by MTT assay; format: functional, cell-based; conditions: HepG2, 48 h
[9] = Induction of ROS generation in CHOK1 cells at 1 uM using DCFH-DA by fluorescence assay relative to control; format: cell-based, Cricetulus griseus; conditions: chinese hamster, cho-k1, 1 µM
[10] = Cytotoxicity against human Caco2 cells assessed as decrease in cell viability after 48 hrs by MTT assay; format: functional, cell-based; conditions: Caco-2, 48 h
[11] = system: HepG2; assay: Induction of ROS generation in human HepG2 cells at 1 uM using DCFH-DA by fluorescence assay relative to control; format: functional
[12] = system: EA.hy 926; assay: Induction of ROS generation in human EAhy926 cells at 1 uM using DCFH-DA by fluorescence assay relative to control; format: functional
[13] = Induction of ROS generation in CHOK1 cells at 10 uM using DCFH-DA by fluorescence assay relative to control; format: cell-based, Cricetulus griseus; conditions: chinese hamster, cho-k1, 10 µM
[14] = Aqueous solubility of the compound in sodium phosphate buffer at pH 6.8 after 90 mins by shake flask method; format: physicochemical
[15] = system: HT-29; assay: Induction of ROS generation in human HT-29 cells at 10 uM using DCFH-DA by fluorescence assay relative to control; format: functional
[16] = system: Caco-2; assay: Induction of ROS generation in human Caco2 cells at 1 uM using DCFH-DA by fluorescence assay relative to control; format: functional
[17] = system: EA.hy 926; assay: Induction of ROS generation in human EAhy926 cells at 10 uM using DCFH-DA by fluorescence assay relative to control; format: functional
[18] = system: Caco-2; assay: Induction of ROS generation in human Caco2 cells at 10 uM using DCFH-DA by fluorescence assay relative to control; format: functional
[19] = system: HT-29; assay: Induction of ROS generation in human HT-29 cells at 1 uM using DCFH-DA by fluorescence assay relative to control; format: functional
[20] = Solubility of the compound in ethyl acetate; format: physicochemical
[21] = Solubility of the compound in acetone; format: physicochemical
[22] = Solubility of the compound in methanol; format: physicochemical
[23] = Solubility of the compound in 2-methyl-THF; format: physicochemical
[24] = Solubility of the compound in ethanol; format: physicochemical
[25] = Solubility of the compound in dimethyl sulfoxide; format: physicochemical
[26] = Solubility of the compound in dimethylformamide; format: physicochemical

Row | Compound | EC50 [1] [µM] | Stability [5] | solubility thermodynamic at 24 h [6] [µM] | Activity [9] [%] | Activity [13] [%] | solubility thermodynamic at 1.5 h [14] [µM] | solubility [20] | IC50 [2] [µM] | IC50 at 48 h [3] [µM] | Activity [4] [%] | IC50 at 48 h [7] [µM] | IC50 [8] [µM] | IC50 [10] [µM] | Activity [11] [%] | Activity [12] [%] | Activity [15] [%] | Activity [16] [%] | Activity [17] [%] | Activity [18] [%] | Activity [19] [%] | further results
1 | O=C(/C=C(/C=C/c1ccc(O)cc1)NCCCO)/C=C/c1ccc(O)cc1 | 154 | Stable | 128 (≈ 46.9 µg/mL) | 86.4 | 80.5 | 137 (≈ 49.9 µg/mL) | Insoluble | 58.9 | 39.1 | 88.7 | 57.3 | 54.1 | 31.6 | 91.3 | 93.3 | 96.9 | 94.1 | 109.9 | 91.7 | 92.5 | solubility [21]: Insoluble; solubility [22]: Soluble; solubility [23]: Insoluble; solubility [24]: Soluble; solubility [25]: Soluble; solubility [26]: Soluble
2 | COc1cc(/C=C/C(=O)/C=C(/C=C/c2ccc(O)c(OC)c2)NCCO)ccc1O | 28.3 | Stable | 11.8 (≈ 4.85 µg/mL) | 93.5 | 90.9 | 8.14 (≈ 3.35 µg/mL) | Insoluble | > 100 | 87.5 | 91.2 | > 100 | > 100 | 87.2 | 86.3 | 113.3 | 102.7 | 103.4 | 102.4 | 96.6 | 95.8 | solubility [21]: Insoluble; solubility [22]: Soluble; solubility [23]: Insoluble; solubility [24]: Soluble; solubility [25]: Soluble; solubility [26]: Soluble
3 | Cc1c(C)c2c(c(C)c1O)CCC(C)(C(=O)O)O2 (stereo not given) [TROLOX] | 29.6 |  |  |  |  |  |  |  |  |  |  |  |  |  |  |  |  |  |  |  | 
4 | COCCCNC(=C\C(=O)/C=C/c1ccc(O)c(OC)c1)/C=C/c1ccc(O)c(OC)c1 | 29.5 | Stable | 9.66 (≈ 4.25 µg/mL) | 98.3 | 81.2 | 7.7 (≈ 3.38 µg/mL) | Insoluble | 72.2 | 53.7 | 77.5 | > 100 | > 100 | 49.1 | 68.5 | 91.5 | 95 | 97.9 | 89.9 | 84.8 | 99.5 | solubility [21]: Insoluble; solubility [22]: Soluble; solubility [23]: Insoluble; solubility [24]: Soluble; solubility [25]: Soluble; solubility [26]: Soluble
5 | COc1cc(/C=C/C(=O)CC(=O)/C=C/c2ccc(O)c(OC)c2)ccc1O [CURCUMIN] | 31.5 | Stable | 1.25 (≈ 0.46 µg/mL) | 103.9 | 101 | 1.51 (≈ 0.556 µg/mL) |  | 51.7 | 42 | 99.1 | 24.6 | 72.7 | 38.3 | 93.7 | 105.5 | 87.3 | 89.1 | 98.8 | 94.8 | 97.3 | 

Continued, in another order:

Row | EC50 [1] [µM] | Stability [5] | solubility thermodynamic at 24 h [6] [µM] | Activity [9] [%] | Activity [13] [%] | solubility thermodynamic at 1.5 h [14] [µM] | solubility [20] | Compound | IC50 [2] [µM] | IC50 at 48 h [3] [µM] | Activity [4] [%] | IC50 at 48 h [7] [µM] | IC50 [8] [µM] | IC50 [10] [µM] | Activity [11] [%] | Activity [12] [%] | Activity [15] [%] | Activity [16] [%] | Activity [17] [%] | Activity [18] [%] | Activity [19] [%] | further results
6 | 49.4 | Stable | 29.9 (≈ 10.5 µg/mL) | 99.4 | 87.6 | 29.2 (≈ 10.3 µg/mL) |  | O=C1C=C(/C=C/c2ccc(O)cc2)N(CCO)C(c2ccc(O)cc2)C1 (stereo not given) | > 100 | > 100 | 100.1 | > 100 | > 100 | > 100 | 105.4 | 106.9 | 98.8 | 95.3 | 101.4 | 91.5 | 100.8 | 
7 | > 200 | Stable | 46.1 (≈ 16.8 µg/mL) | 82.5 | 75.1 | 37.5 (≈ 13.7 µg/mL) | Insoluble | COCCNC(=C\C(=O)/C=C/c1ccc(O)cc1)/C=C/c1ccc(O)cc1 | 57.4 | 34.9 | 77.9 | 45.1 | 63.3 | 28 | 76.4 | 130.3 | 96.8 | 94.9 | 134.2 | 89.7 | 97 | solubility [21]: Insoluble; solubility [22]: Soluble; solubility [23]: Insoluble; solubility [24]: Soluble; solubility [25]: Soluble; solubility [26]: Soluble
8 | > 200 | Stable | 4.3 (≈ 1.33 µg/mL) | 104.6 | 107.9 | 3.18 (≈ 0.98 µg/mL) |  | O=C(/C=C/c1ccc(O)cc1)CC(=O)/C=C/c1ccc(O)cc1 [BISDEMETHOXYCURCUMIN] | > 100 | 91.4 | 69.4 | 54.3 | > 100 | > 100 | 88.8 | 95.8 | 95.4 | 100.1 | 104.6 | 88.8 | 101.1 | 
9 | > 200 | Stable | 38.8 (≈ 14.7 µg/mL) | 97.8 | 91.7 | 25.8 (≈ 9.8 µg/mL) |  | COCCCN1C(/C=C/c2ccc(O)cc2)=CC(=O)CC1c1ccc(O)cc1 (stereo not given) | > 100 | > 100 | 96.2 | > 100 | > 100 | > 100 | 93.2 | 116.4 | 74.7 | 99 | 118.6 | 99.4 | 90.5 | 
10 | 33.9 | Stable | 62.9 (≈ 26.8 µg/mL) | 91.8 | 80.3 | 58.9 (≈ 25.1 µg/mL) |  | COc1cc(/C=C/C2=CC(=O)CC(c3ccc(O)c(OC)c3)N2CCCO)ccc1O (stereo not given) | > 100 | > 100 | 96.3 | > 100 | > 100 | 88 | 95.2 | 122 | 96.5 | 95.6 | 123.5 | 91 | 98.1 | 
